Source: publication PMC9230136 (Pharmaceutics, 2022)
Like-named read-outs stand apart in the source and are kept apart here. One block for each compound: values may come before it.

Columns and labels:
A549 [1] = test: Antiproliferative assay (resazurin, 72 h); assay type: cell-based, human
In short: (§1)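 The highest dose is 10 μM, diluted in five-fold steps, and each condition is run in triplicate. HT-29 uses RPMI-1640 medium; MDA-MB-231, A549 and HeLa use DMEM.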

HT-29 = test: Antiproliferative assay (resazurin, 72 h); assay type: cell-based, human
In short: as §1

HeLa [2] = test: Antiproliferative assay (resazurin, 72 h); assay type: cell-based, human
In short: as §1

Jurkat = test: Antiproliferative assay (resazurin, 72 h); assay type: cell-based, human
In short: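 Compounds dissolved in DMSO as 10 mM stocks were applied to seeded Jurkat cells using 5-fold serial dilutions from 10 μM, with each condition run in triplicate. Following 72 h incubation, 10 μL of 100 μg/mL resazurin was added for 3–4 h, and fluorescence was measured at 535 nm excitation and 600 nm emission.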

MDA-MB-231 = test: Antiproliferative assay (resazurin, 72 h); assay type: cell-based, human; details: mean ± SE, 72 h
In short: as §1

[3] = tested on: A549, MDA-MB-231, HeLa, HT-29 and Jurkat cancer cell lines; test: Antiproliferative activity over the panel of cancer cell lines; assay type: cell-based, human
Procedure: Colon adenocarcinoma (HT-29) and T-cell leukemia (Jurkat) cells were grown in RPMI-1640 medium (Gibco, Milano, Italy). Promyelocytic leukemia cells (HL-60), non-small cell lung carcinoma (A549), cervix carcinoma (HeLa) and breast adenocarcinoma (MDA-MB-231) cells were grown in DMEM medium (Gibco, Milano, Italy). Both media were supplemented with 115 units/mL of penicillin G (Gibco, Milano, Italy), 115 μg/mL of streptomycin (Invitrogen, Milano, Italy) and 10% fetal bovine serum (Invitrogen, Milano, Italy). All the cell lines used were purchased from the American Type Culture Collection (ATCC, Manassas, VA, USA). Stock solutions (10 mM) of the compounds were obtained by dissolving them in DMSO.
The cells were seeded in 96-well plates at the appropriate density for each cell line. After 24 h, the cells were treated by performing serial 5-fold dilutions of the tested compounds starting from a concentration of 10 μM. All experimental conditions were tested in triplicate for statistical analysis. The plates were incubated for 72 h at 37 °C in a humidified 5% CO2 atmosphere. At the end of the incubation period, 10 μL of 100 μg/mL resazurin solution was added to each well; then, the plate was re-incubated for 3–4 h. The fluorescence of the wells in each plate was monitored using a Spark 10 M spectrophotometer (Tecan Group Ltd., Mannedorf, Switzerland) with a 535 nm excitation wavelength and a 600 nm emission wavelength.

quiescent PBLs = test: Cytotoxicity in human PBLs, resting; assay type: cell-based; details: PBL not stimulated with PHA, 72 h, read-out: IC50 PBLresting
Excerpt: (§2) Human PBLs were obtained from healthy donors by separation on a Lymphoprep^TM (Serumwerk Bernburg AG) gradient and were used for the evaluation of the cytotoxic potential of compounds under study in normal human cells. Buffy coats were obtained from the Blood Transfusion Service, Azienda Ospedaliera of Padova and provided at this institution for research purposes without identifier. The samples were not obtained specifically for this study, and for this reason ethical approval was not required. Informed consent was obtained from blood donors according to Italian law no. 219 (21 October 2005). Data were treated by the Blood Transfusion Service according to Italian law on personal data management “Codice in materia di protezione dati personali” (Testo Unico D.L. Giugno 30, 2003 196).
(§3) After extensive washing with saline solution (BioConcept, Hank’s Buffered Saline Solution), quiescent PBLs were resuspended (1.0 × 10^6 cells/mL) in RPMI-1640 medium supplemented with 10% fetal bovine serum. Cytotoxicity evaluations were conducted also in cultures of proliferating PBLs, stimulated with […] PHA (Irvine Scientific). Both resting and proliferating lymphocytes were seeded in 96-well plates and maintained overnight at 37 °C in a humidified 5% CO2 incubator. Serial (5-fold) dilutions of the tested compounds were added, and viability was determined 72 h later by the resazurin viability assay as described above.

PBL stimulated with PHA = test: Cytotoxicity in human PBLs stimulated with PHA; assay type: cell-based; details: 72 h, read-out: IC50 PBLPHA
Excerpt: as §2, §3

Bovine brain tubulin [4] = test: Inhibition of tubulin polymerization; assay type: biochemical
Procedure: (§4) Bovine brain tubulin was purified as described previously. To evaluate the effects of the compounds on tubulin assembly in vitro [35], varying concentrations were preincubated with 10 μM tubulin in 0.8 M monosodium glutamate (pH 6.6) at 30 °C and the reaction mixtures then cooled to 0 °C. After addition of GTP, the mixtures were transferred to 0 °C cuvettes in Beckman Coulter (Brea, CA, USA) DU-7400/DU-7500 recording spectrophotometers equipped with electronic temperature controllers and warmed to 30 °C, and the assembly of tubulin was observed turbidimetrically. […] Inhibition of colchicine binding to tubulin was measured as described before, except that the reaction mixtures contained 0.5 μM tubulin and 5 μM each of [^3H]colchicine and test compound. Only one DEAE-cellulose filter was used per sample, and filtration was by gravity.

Bovine brain tubulin [5] = test: Inhibition of [3H]colchicine binding to tubulin; details: tubulin 0.5 µM, [3H]colchicine 5 µM, compound 5 µM
Procedure: as §4

HeLa cells [6] = test: Cell cycle analysis (PI, flow cytometry); assay type: cell-based, human; details: 24 h; for cells arrested in the G2/M phase: 100 nM
Procedure: HeLa cells were seeded at 100,000 cells per well on 6-well tissue culture plates. After 24 h, cells were treated with different test compound concentrations or DMSO for another 24 h. Cells were then fixed and stained with propidium iodide (PI). The fluorescence intensity of 10,000 single-cell events was measured with a Beckman Coulter Cytomics FC500 instrument (Beckman Coulter Italia, Milano, Italy) and the data were analyzed with MultiCycle for Windows software from Phoenix Flow Systems (San Diego, CA, USA).

HeLa cells [7] = test: Apoptosis by annexin-V-FITC/PI flow cytometry; assay type: cell-based, human
Procedure: Surface exposure of phosphatidylserine on apoptotic cells was measured by flow cytometry with a Beckman Coulter Cytomics FC500 (Beckman Coulter Italia, Milano, Italy) by adding annexin-V conjugated to fluorescein isothiocyanate (FITC) to cells according to the manufacturer’s instructions (Annexin-V Fluos, Roche Diagnostic, Monza, Italy). Simultaneously, the cells were stained with PI. Excitation was set at 488 nm, and the emission filters were at 525 and 585 nm, respectively, for FITC and PI.

HeLa cells [8] = test: Mitochondrial membrane potential (JC-1); assay type: cell-based, human; details: Figure 8A representative plot; concentration not given
Procedure: (§5) The mitochondrial potential was evaluated in HeLa cells by flow cytometry using the cell membrane permeable cationic dye 5,5′,6,6′-tetrachloro-1,1′,3,3′-tetraethyl-imidacarbocyanine iodide (JC-1) (Molecular Probes) as described previously. The production of ROS was measured in HeLa cells by flow cytometry using 2′,7′-dichlorodihydrofluorescein diacetate (H2DCFDA) (Molecular Probes) as described previously.

HeLa cells [9] = test: ROS production (H2DCFDA); assay type: cell-based, human; details: 10, 50 or 100 nM; 24 h
Procedure: as §5

HeLa cells [10] = test: EdU cell proliferation assay; assay type: cell-based, human; details: 25 or 50 nM; 24 h
Procedure: HeLa cells were seeded in a 6-well plate and, after a 24 h incubation, were treated with the desired compounds as indicated in the Biological Results and Discussion section. Cells were re-incubated for one day and then labeled with EdU (10 μM) for 3 h under cell culture conditions. Cells were harvested by centrifugation before proceeding with the fixation step using 3.7% formaldehyde. Next, permeabilization with 0.5% Triton X-100 was performed. The reaction cocktail was prepared and added to each well (100 μL/well) following the manufacturer’s instructions (EdU-Click 488, base click, Sigma-Aldrich. Milano Italy), and the plate was incubated at room temperature for 30 min in the dark. Cells were washed 2 times with phosphate-buffered saline (PBS) before reading samples with a Beckman Coulter Cytomics FC500 instrument (λex/λem = 496/516 nm).

HeLa [11] = details: cited from earlier work
A549 [12] = details: read-out: IC50 A549; cited from earlier work
tubulin = details: cited from earlier work
Zebrafish embryos = test: Acute toxicity assessment in zebrafish embryos; assay type: in vivo, Danio rerio; details: 100 nM
Procedure: Zebrafish embryos at 72 h post fertilization (hpf) were selected for the acute toxicity assay since, at that time, morphogenesis and function of the primary organ systems are complete. Embryos at 72 hpf were assayed in a 12-well plate, 20 larvae/well for each experimental condition.
The zebrafish embryos were treated as described in the Biological Results and Discussion section using drug concentrations selected on the basis of in vitro experimental data. The drugs were added directly to the fish water from 10 mM stock solutions in DMSO of tested compounds. […] CA-4P was employed as the reference compound.
The experiment was carried out at a constant temperature (28.5 °C) in the dark, and at 24 and 48 h time points, zebrafish were subjected to visual observation and image acquisition under a stereomicroscope (Nikon SMZ745T; Nikon, Japan). The number of dead zebrafish embryos for each condition was recorded, and morphological defects were evaluated. The survival rate (%) after treatment was calculated.

[13] = design: method as in PMID 31459105; details: cited from earlier work
[14] = design: method as in PMID 31459105; details: cited from earlier work; remark: listed apart in the source
[15] = tubulin at 10 μM, read-out: Tubulin Assembly IC50 ± SD

IC50 (A549 [1]; Table 1, mean ± SE): 190 ± 20 nM
IC50 (HT-29): 142 nM
IC50 (HT-29; Table 1, mean ± SE, 72 h): 140 ± 11 nM
IC50 (HeLa [2]; Table 1, mean ± SE): 67 ± 7 nM
IC50 (Jurkat): > 2000 nM
IC50 (Jurkat; Table 1, mean ± SE, 72 h): 2720 ± 130 nM
IC50 (MDA-MB-231; Table 1): 91 ± 8 nM
IC50 ([3]; four of the five cell lines, read-out: IC50 values against four of the five cell lines): < 1000 nM
IC50 (Bovine brain tubulin [4]; [15]): 380 ± 60 nM
Colchicine Binding % Inhibition ± SD (Bovine brain tubulin [5]): 55 ± 3%
Structure (SMILES): COc1cc(Nc2cc(C)nc3nc(NCCCc4ccccc4)nn23)cc(OC)c1OC [Compound 7ad]
IC50 (quiescent PBLs): > 10000 nM
IC50 (PBL stimulated with PHA): > 10000 nM
cells arrested in the G2/M phase (HeLa cells [6]): more than 70%
concentration at which G2/M arrest began (HeLa cells [6]): 25 nM
concentration from which apoptosis was induced (HeLa cells [7]): 50 nM
Monomers (%) (monomeric JC-1) (HeLa cells [8]): 33.4%
ROS production (HeLa cells [9]): significantly increased ROS production in a dose-dependent manner
EdU incorporation / cell proliferation (HeLa cells [10]): effective in reducing HeLa cell proliferation

Structure (SMILES): COc1cc(-c2nc3nc(C)c(C(C)=O)c(-c4ccc([N+](=O)[O-])cc4)n3n2)cc(OC)c1OC [Compound 4]
IC50 (HeLa [11]): 750 nM
IC50 (A549 [12]): 1020 nM
inhibition of tubulin assembly (tubulin; at 10 μM): 40%

IC50 (A549 [1]; Homo sapiens, A549, Table 2, mean ± SE): 81 ± 2 nM
IC50 (HT-29; Homo sapiens, HT-29, Table 2, mean ± SE, 72 h): 58 ± 10 nM
IC50 (HeLa [2]; Homo sapiens, HeLa, Table 2, mean ± SE): 35 nM
IC50 (Jurkat; Homo sapiens, Jurkat, Table 2, mean ± SE, 72 h): 230 ± 20 nM
IC50 (MDA-MB-231; Homo sapiens, MDA-MB-231, Table 2): 98 ± 20 nM
IC50 ([3]; Homo sapiens, mean over the five cancer cell lines, read-out: mean IC50 (antiproliferative activity)): 101 nM
IC50 (Bovine brain tubulin [4]; read-out: IC50 tubulin polymerization): 390 nM
IC50 (Bovine brain tubulin [4]; [15]): 520 ± 60 nM
Colchicine Binding % Inhibition ± SD (Bovine brain tubulin [5]): 87 ± 0.8%
melting point: 168 to 170 °C
Structure (SMILES): Cc1cc(Nc2ccc(F)c(Cl)c2)n2nc(NCCCc3ccccc3)nc2n1 [Compound 8r, N^7-(3-Chloro-4-fluorophenyl)-5-methyl-N^2-(3-phenylpropyl)-[1,2,4]triazolo [1,5-a]pyrimidine-2,7-diamine]
IC50 (quiescent PBLs; Homo sapiens): > 10000 nM
IC50 (PBL stimulated with PHA; Homo sapiens): > 10000 nM
fold more potent than CA-4, tubulin polymerization (Bovine brain tubulin [4]): about 2 fold
cells arrested in the G2/M phase (HeLa cells [6]): more than 70%
concentration at which G2/M arrest began (HeLa cells [6]): 25 nM
concentration from which apoptosis was induced (HeLa cells [7]): 50 nM
Monomers (%) (monomeric JC-1) (HeLa cells [8]): 16.6%
ROS production (HeLa cells [9]): significantly increased ROS production in a dose-dependent manner
EdU incorporation / cell proliferation (HeLa cells [10]): effective in reducing HeLa cell proliferation

Structure (SMILES): COc1ccc(-c2c(C(C)=O)c(C)nc3nc(-c4cc(OC)c(OC)c(OC)c4)nn23)cc1[N+](=O)[O-] [Compound 5]
IC50 (HeLa [11]): 10000 nM
IC50 (A549 [12]): 16000 nM
IC50 (tubulin; read-out: IC50 antitubulin activity): 9900 nM

Structure (SMILES): COc1ccc(/C=C\c2cc(OC)c(OC)c(OC)c2)cc1O [CA-4, combretastatin A-4, reference compound]
IC50 (HeLa [2]; Homo sapiens, HeLa, Table 1, mean ± SE): 4 ± 1 nM
IC50 (Jurkat; Homo sapiens, Jurkat, Table 1, mean ± SE, 72 h): 1 ± 0.2 nM
IC50 (MDA-MB-231; Homo sapiens, MDA-MB-231, Table 1): 5 ± 2 nM
IC50 ([3]; Homo sapiens, against three of the five lines (not A549, HT-29), read-out: IC50's, range): 1 to 5 nM
IC50 (quiescent PBLs; Homo sapiens): > 10000 nM
IC50 (PBL stimulated with PHA; Homo sapiens): 18.6 ± 3.8 nM
Colchicine Binding % Inhibition ± SD (Bovine brain tubulin [5]): 97 ± 0.1%
lethality (Zebrafish embryos): 100%
Results (toxicity evaluation) (Zebrafish embryos; 72 hpf embryos): Toxic
aqueous solubility [13]: very poor aqueous solubility
biological half-life [14]: short biological half-life

Structure (SMILES): COc1ccc(-c2nc3nc(C)c(C(C)=O)c(-c4cc(OC)c(OC)c(OC)c4)n3n2)cc1O [Compound 6]
IC50 (HeLa [11]): 60 nM
fold more powerful than CA-4, tubulin polymerization (tubulin): 3 fold
